ChEMBL document CHEMBL5252615, “Synthesis, biological activity and mechanism of action of novel allosecurinine derivatives as potential antitumor agents” (Bioorg Med Chem, 2023)

Key:
Format in all cases: functional, cell-based
HL-60 = test: Antitumor activity against human HL-60 cells assessed as reduction in cell viability incubated for 72 hrs; conditions: HL-60, 72 h
SK-OV-3 [1] = test: Antitumor activity against human SK-OV-3 cells assessed as reduction in cell viability incubated for 72 hrs; conditions: SK-OV-3, 72 h
NB-4 = test: Antitumor activity against human NB4 cells assessed as reduction in cell viability incubated for 72 hrs; conditions: NB-4, 72 h
THP-1 = test: Antitumor activity against human THP-1 cells assessed as reduction in cell viability incubated for 72 hrs; conditions: THP-1, 72 h
SK-OV-3 [2] = test: Antitumor activity against taxol-resistant human SK-OV-3 cells assessed as reduction in cell viability incubated for 72 hrs; conditions: SK-OV-3, 72 h
SU-DHL-2 = test: Antitumor activity against human SUDHL2 cells assessed as reduction in cell viability incubated for 72 hrs; conditions: SU-DHL-2, 72 h
U-937 = test: Antitumor activity against human U-937 cells assessed as reduction in cell viability incubated for 72 hrs; conditions: U-937, 72 h
K562 = test: Antitumor activity against human K562 cells assessed as reduction in cell viability incubated for 72 hrs; conditions: K562, 72 h
KG-1 = test: Antitumor activity against human KG-1 cells assessed as reduction in cell viability incubated for 72 hrs; conditions: KG-1, 72 h

| Structure (SMILES) | IC50 (HL-60) | IC50 (SK-OV-3 [1]) | IC50 (NB-4) | IC50 (THP-1) | IC50 (SK-OV-3 [2]) | IC50 (SU-DHL-2) | IC50 (U-937) | IC50 (K562) | IC50 (KG-1) |
| --- | --- | --- | --- | --- | --- | --- | --- | --- | --- |
| O=C1O[C@@]23C[C@@H](C=CC2=C1C(O)c1ccccc1)N1CCCC[C@H]13 (some centres not stated) | 14.7 µM | 14.5 µM | 13.3 µM | 20.7 µM | 15.1 µM | 19 µM | 9.23 µM | 16.9 µM | 9.12 µM |
| O=C1O[C@@]23C[C@@H](C=CC2=C1C(O)c1nc2ccccc2s1)N1CCCC[C@H]13 (some centres not stated) |  | 21 µM |  | 16.4 µM |  | 18 µM | 13.8 µM |  |  |
| O=C1O[C@@]23C[C@@H](C=CC2=C1C(O)c1cccc(F)c1)N1CCCC[C@H]13 (some centres not stated) | 8.73 µM | 3.42 µM | 4.01 µM | 12 µM | 6.52 µM | 16 µM | 8.73 µM | 4.45 µM | 3.98 µM |
| O=C1O[C@@]23C[C@@H](C=CC2=C1C(O)c1ccccc1Br)N1CCCC[C@H]13 (some centres not stated) | 3.52 µM | 7.76 µM | 4.67 µM | 15.5 µM | 5.59 µM | 20.7 µM | 4.38 µM | 1.68 µM | 4.11 µM |
| O=C1O[C@@]23C[C@@H](C=CC2=C1C(O)c1ccccc1Cl)N1CCCC[C@H]13 (some centres not stated) | 7.42 µM | 4.52 µM | 3.18 µM | 19.2 µM | 5.37 µM | 16.4 µM | 3.81 µM | 5.37 µM | 3.8 µM |
| CC(C)(C)c1ccc(C(O)C2=C3C=C[C@@H]4C[C@@]3(OC2=O)[C@@H]2CCCCN42)cc1 (some centres not stated) | 16 µM | 14.9 µM | 15.9 µM | 16.1 µM | 17 µM | 20.9 µM | 16.7 µM | 20.1 µM | 5.77 µM |
| O=C1O[C@@]23C[C@@H](C=CC2=C1C(O)c1ccccc1F)N1CCCC[C@H]13 (some centres not stated) | 9.47 µM | 10.2 µM | 10.9 µM | 3.34 µM | 12.8 µM | 20.3 µM | 4.22 µM | 7.14 µM | 3.54 µM |
| O=C1O[C@@]23C[C@@H](C=CC2=C1C(O)c1ccc(Cl)cc1)N1CCCC[C@H]13 (some centres not stated) | 11.8 µM | 9.94 µM | 10.1 µM | 14.8 µM | 11 µM | 18.3 µM | 7.56 µM | 4.47 µM | 3.95 µM |
| Cc1ccccc1C(O)C1=C2C=C[C@@H]3C[C@@]2(OC1=O)[C@@H]1CCCCN31 (some centres not stated) | 13.4 µM | 20.1 µM | 5.01 µM | 26.9 µM | 19.3 µM | 27.2 µM | 8.04 µM | 12.7 µM | 10 µM |
| N#Cc1cccc(C(O)C2=C3C=C[C@@H]4C[C@@]3(OC2=O)[C@@H]2CCCCN42)c1 (some centres not stated) | 9.98 µM | 6.68 µM | 7.7 µM | 16.1 µM | 7.61 µM | 20.1 µM | 1.79 µM | 6.02 µM | 1.95 µM |
| O=C1O[C@@]23C[C@@H](C=CC2=C1C(O)c1ccc(-c2ccccc2)cc1)N1CCCC[C@H]13 (some centres not stated) | 6.76 µM | 14.8 µM | 3.32 µM | 9.15 µM | 13.8 µM | 9.59 µM | 3.63 µM | 3.15 µM | 4.77 µM |
| CC[C@@]1(O)C(=O)OCc2c1cc1n(c2=O)Cc2cc3ccccc3nc2-1 [CAMPTOTHECIN] | 0.91 µM |  | 2.01 µM | 1.89 µM | 4.86 µM | 0.94 µM | 1.81 µM | 0.58 µM | 2.31 µM |
| O=C1O[C@@]23C[C@@H](C=CC2=C1C(O)c1ccc(Br)cc1)N1CCCC[C@H]13 (some centres not stated) | 9.92 µM | 14.2 µM | 6.18 µM | 15.5 µM | 12.5 µM | 15.2 µM | 10.8 µM | 2.58 µM | 2.27 µM |
| O=C1O[C@@]23C[C@@H](C=CC2=C1C(O)c1ccc([N+](=O)[O-])cc1[N+](=O)[O-])N1CCCC[C@H]13 (some centres not stated) | 10.8 µM | 7.86 µM | 12 µM | 18 µM | 8.89 µM | 18.3 µM | 6.36 µM | 10.8 µM | 3.08 µM |
| O=C1O[C@@]23C[C@@H](C=CC2=C1C(O)c1ccc(F)cc1F)N1CCCC[C@H]13 (some centres not stated) | 7.66 µM | 14.7 µM | 5.8 µM | 15.8 µM | 14.9 µM | 15.3 µM | 6.99 µM | 10.3 µM | 2.21 µM |
| Cc1ccc(C(O)C2=C3C=C[C@@H]4C[C@@]3(OC2=O)[C@@H]2CCCCN42)cc1 (some centres not stated) | 11.5 µM | 7.58 µM | 13.2 µM | 12.7 µM | 8.42 µM | 19.4 µM | 11.1 µM | 8.35 µM | 5.58 µM |
| O=C1C=C2C=C[C@H]3C[C@@]2(O1)[C@@H]1CCCCN13 | 21.2 µM | 35.2 µM | 20.4 µM | > 50 µM | 36.4 µM | > 50 µM | 14.9 µM | 38.1 µM | > 50 µM |
| O=C1O[C@@]23C[C@@H](C=CC2=C1C(O)c1csc2ccccc12)N1CCCC[C@H]13 (some centres not stated) | 20.4 µM | 22.2 µM | 4.45 µM | 15.6 µM | 20.7 µM | 27.9 µM | 29.6 µM | 2.37 µM | 6.14 µM |
| O=C1O[C@@]23C[C@@H](C=CC2=C1C(O)c1ccc(F)cc1)N1CCCC[C@H]13 (some centres not stated) | 15.2 µM | 6.84 µM | 10.3 µM | 12.4 µM | 8.32 µM | 15.3 µM | 16.6 µM | 17.3 µM | 2.12 µM |
| O=C1O[C@@]23CC(C=CC2=C1C(O)c1ccccc1[N+](=O)[O-])N1CCCC[C@H]13 (single isomer, unassigned) | 9.2 µM | 10.2 µM | 3.3 µM | 10.7 µM | 9.91 µM | 16.1 µM | 8.05 µM | 3.7 µM | 4.18 µM |
| CS(=O)(=O)c1ccc(C(O)C2=C3C=C[C@@H]4C[C@@]3(OC2=O)[C@@H]2CCCCN42)cc1 (some centres not stated) | 17.2 µM | 11.6 µM | 12.8 µM | 25.9 µM | 12.5 µM | 20.8 µM | 27.3 µM | 17.7 µM | 4.84 µM |
| O=C1O[C@@]23C[C@@H](C=CC2=C1C(O)c1ccc(C(F)(F)F)cc1)N1CCCC[C@H]13 (some centres not stated) | 4.17 µM | 13.5 µM | 1.99 µM | 6.16 µM | 14.8 µM | 12.1 µM | 3.68 µM | 6.06 µM | 1.83 µM |
